Values quoted from earlier work in patent publication US6531162B1, “Adrenergically-mediated weight loss product” (priority 2002, dated 2003).
“Also recorded” adds a separate entry of the source.

Tests used:
COMT enzyme = conditions: in-vitro
beta-3 receptors [1] = target: T1, beta-3 receptors (Homo sapiens, UniProt P13945); conditions: in-vitro studies
[2] = single doses as high as 21.6 mg or daily cumulative doses as high as 43.2 mg
humans = conditions: after oral dosing
[3] = green tea versus equivalent dose (50 mg) of caffeine
beta-3 receptors [4] = target: T1, beta-3 receptors; conditions: using beta blocking agents

T1 sequence (P13945 whole entry): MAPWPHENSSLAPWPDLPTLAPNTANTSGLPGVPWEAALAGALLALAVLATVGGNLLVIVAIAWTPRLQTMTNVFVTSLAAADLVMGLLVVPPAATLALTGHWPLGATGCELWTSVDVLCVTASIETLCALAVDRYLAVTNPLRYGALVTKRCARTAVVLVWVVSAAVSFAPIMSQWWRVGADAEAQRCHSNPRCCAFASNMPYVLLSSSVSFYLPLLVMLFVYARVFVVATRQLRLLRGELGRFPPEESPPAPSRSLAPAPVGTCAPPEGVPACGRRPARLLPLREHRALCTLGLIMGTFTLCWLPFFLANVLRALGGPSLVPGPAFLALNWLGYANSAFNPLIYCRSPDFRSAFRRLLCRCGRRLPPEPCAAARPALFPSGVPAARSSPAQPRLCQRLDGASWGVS

For `COc1c(O)cc2c(c1O)[C@@H]1O[C@H](CO)[C@@H](O)[C@H](O)[C@H]1OC2=O` [Bergenin], the “effect on lipogenic actions of insulin” value (fat cells) is listed as “oppose the lipogenic (fat building) actions of insulin”, the “direct stimulation of lipolysis / adrenergic activity” value (fat cells; in-vitro, compound alone) is listed as “does not directly stimulate lipolysis; also recorded: no direct adrenergic activity” and the “enhancement of lipolysis induced by norepinephrine” value (fat cells; in-vitro, with norepinephrine) is listed as “markedly enhances lipolysis; also recorded: increase the lipolytic activity of norepinephrine”.
In the case of `O=C(O[C@@H]1Cc2c(O)cc(O)cc2O[C@@H]1c1cc(O)c(O)c(O)c1)c1cc(O)c(O)c(O)c1` [EGCG], the “inhibition of the COMT enzyme” value (COMT enzyme) is listed as “inhibit the COMT enzyme”.
In the case of `NCC(O)c1ccc(O)cc1` (stereo not shown) [Octopamine], the “beta-3 agonist activity and selectivity” value (beta-3 receptors [1]) is listed as “potent selective beta-3 agonist; also recorded: selective for this receptor”.
In the case of `COC(=O)[C@@H]1[C@H]2C[C@H]3c4[nH]c5ccccc5c4CCN3C[C@@H]2CC[C@@H]1O` [Yohimbine], the “impact on blood pressure or heart rate” value [2] is listed as “no significant impact”, the tolerability [2] is listed as “well tolerated” and the lipolysis in humans (humans) is listed as “capable of increasing lipolysis”.
For `Cn1c(=O)c2c(ncn2C)n(C)c1=O` [caffeine], the “24 hour energy expenditure” value [3] is listed as “no noticeable effect”.
For `CN[C@@H](C)[C@H](O)c1ccccc1` [ephedrine], the “share of ephedrine-induced thermogenesis accounted for by beta-3 agonist activity” value (beta-3 receptors [4]) is given as “at least 40%”.
